Laboratory results reported in patent US20060062758A1, “Tight junction modulator peptide PN159 for enhanced mucosal delivery of therapeutic compounds” (Nastech Pharmaceutical Comapny Inc., priority 2004, published 2006).

How the values were obtained:
[1] = MTT assay (cell viability), in vitro epithelial tissue model; assay type: cell-based; settings: human, pH 5; galantamine lactate 40 mg/ml and PN159 at all concentrations tested (25, 50, 100 μM)
[2] = tested on: EpiAirway™ Cell Membrane (mucosal epithelial cell layer); test: LDH assay (cytotoxicity), in vitro epithelial tissue model; assay type: cell-based
Protocol: Repeated freeze-thaw cycles are to be avoided.
The amount of cell death was assayed by measuring the loss of lactate dehydrogenase (LDH) from the cells using a CytoTox 96 Cytoxicity Assay Kit (Promega Corp., Madison, Wis.). Fifty microliters of sample was loaded into a 96-well assay plates. Fresh, cell-free culture medium was used as a blank. 50 μl of substrate solution was added to each well and the plates incubated for 30 minutes at room temperature in the dark. Following incubation, 50 μl of stop solution was added to each well and the plates read on an optical density plate reader at 490 nm.
The formulation pH was fixed at 4.5.

[3] = tested on: EpiAirway™ Cell Membrane (mucosal epithelial cell layer); test: Permeation kinetics across the in vitro epithelial tissue model; settings: for Perm(x)/Perm(159) +/− SEM*: mean values from multiple repeats; for PTH1-34 permeation: 2 mg/ml PTH, pH 4.5
Protocol: The EpiAirway™ system was developed by MatTek Corp (Ashland, Mass.) as a model of the pseudostratified epithelium lining the respiratory tract. The epithelial cells are grown on porous membrane-bottomed cell culture inserts at an air-liquid interface, which results in differentiation of the cells to a highly polarized morphology. The apical surface is ciliated with a microvillous ultrastructure and the epithelium produces mucus (the presence of mucin has been confirmed by immunoblotting). The inserts have a diameter of 0.875 cm, providing a surface area of 0.6 cm^2. The cells are plated onto the inserts at the factory approximately three weeks before shipping. One “kit” consists of 24 units.
A. A “kit” of 24 EpiAirway™ units can routinely be employed for evaluating five different formulations, each of which is applied to quadruplicate wells. Each well is employed for determination of permeation kinetics (4 time points), transepithelial electrical resistance (TER). An additional set of wells is employed as controls, which are sham treated during determination of permeation kinetics, but are otherwise handled identically to the test sample-containing units for determinations of transepithelial resistance and viability.
B. In all experiments, the mucosal delivery formulation to be studied is applied to the apical surface of each unit in a volume of 100 μL, which is sufficient to cover the entire apical surface. An appropriate volume of the test formulation at the concentration applied to the apical surface (no more than 100 μL is generally needed) is set aside for subsequent determination of concentration of the active material by ELISA or other designated assay.
D. In order to minimize potential sources of error and avoid any formation of concentration gradients, the units are transferred from one 0.9 mL-containing well to another at each time point in the study. These transfers are made at the following time points, based on a zero time at which the 100 μL volume of test material was applied to the apical surface: 15 minutes, 30 minutes, 60 minutes, and 120 minutes.
F. At the completion of each time point, the medium is removed from the well from which each unit was transferred, and aliquotted into two tubes (one tube receives 700 μL and the other 200 μL) for determination of the concentration of permeated test material and, in the event that the test material is cytotoxic, for release of the cytosolic enzyme, lactate dehydrogenase, from the epithelium. These samples are kept in the refrigerator if the assays are to be conducted within 24 hours, or the samples are subaliquotted and kept frozen at −80° C. until thawed once for assays. Repeated freeze-thaw cycles are to be avoided.
EIA kit (p/n S-1178(EIAH6101) was purchased from Peninsula Laboratories Inc. (Division of BACHEM, San Carlos, Calif., 800-922-1516). 17×120 mm polypropylene conical tubes (p/n 352097, Falcon, Franklin Lakes, N.J.) were used for all sample preparations. Eight standards were used for PTH quantitation. The rest of the assay procedure was the same as the kit inserts.
The instant study was designed to evaluate the effect of PN159 itself or in combination with additional permeation enhancers on PTH permeation. The PN159 concentrations evaluated are 25, 50, and 100 μM. The additional permeation enhancers are 45 mg/ml M-β-CD, 1 mg/ml DDPC, and 1 mg/ml EDTA. Sorbitol was used as a tonicifier (146-190 mM) to adjust the osmolarity of formulations to 220 mOsm/kg. The formulation pH was fixed at 4.5. PTH was chosen as a model peptide in this example. 2 mg/ml PTH was combined with PN159 with or without additional permeation enhancers. The combination was tested using an in vitro epithelial tissue model to monitor PTH permeation, transepithelial electrical resistance (TER), and the cytotoxicity of the formulation by LDH assay.
The effect of PN159 on permeation of MC-4RA was evaluated in this study.

With `CC(C)C[C@H](NC(=O)[C@H](C)NC(=O)[C@H](CCCCN)NC(=O)[C@H](CC(C)C)NC(=O)[C@H](C)NC(=O)[C@H](CC(C)C)NC(=O)[C@H](CCCCN)NC(=O)[C@H](CC(C)C)NC(=O)[C@H](C)NC(=O)[C@H](CC(C)C)NC(=O)[C@@H](N)CCCCN)C(=O)N[C@@H](CCCCN)C(=O)N[C@@H](C)C(=O)N[C@@H](C)C(=O)N[C@@H](CC(C)C)C(=O)N[C@@H](CCCCN)C(=O)N[C@@H](CC(C)C)C(=O)N[C@@H](C)C(N)=O` [PN159] the viability [1] was > 80%, the “cytotoxicity (LDH)” value ([2]; Example 2, PTH study, PN159 25-100 μM) was “no significant cytotoxicity” and the “cytotoxicity as measured by LDH” value ([2]; in the presence of PN159 and galantamine lactate) was “low”. The “Perm(x)/Perm(159) +/− SEM*” value ([3]; Example 7, length changes, relative to PN159) was 1.00, the “permeation of MC-4RA” value ([3]; PN159 5, 25, 50, 100 μM, 10 mg/ml MC-4RA, 45 mg/ml M-β-CD, pH 4) was “significantly enhance epithelial permeation” and the PTH1-34 permeation ([3]; PN159 25, 50, 100 μM without additional enhancers) was “Significant increase in PTH permeation”. The PTH1-34 permeation ([3]; PN159 combined with 45/1/1 mg/ml M-b-CD/DDPC/EDTA) was “Additional increase in PTH permeation”, the “Perm(x)/Perm(159) +/− SEM” value ([3]; Table 6, D-amino acid substitutions, relative to PN159) was 1.00 +/− 0.13 and the “Perm(x)/Perm(159) +/− SEM*” value ([3]; Table 9, hydrophobic faces, relative to PN159) was 1.00 +/− 0.13.
